Experimental data from publication PMC11901705 (Molecules, 2025).

Key:
[1] = Stability of vancomycin in extracted human plasma samples; assay type: physicochemical; details: for Mean back calculated Vancomycin Concentrations: extracted human plasma, HPLC-UV, mean of n = 5
Protocol: (§1) The chromatographic separation was performed using HPLC-UV (Shimadzu, Kyoto, Japan), which consisted of solvent delivery pumps (LC-20 AT), an SIL-20A autosampler, and a UV-VIS detector (SPD-10A VP). The HPLC chromatographic separation was performed using a reverse-phase Supleco Discovery® C18 column (5 μm, 250 × 4.6 mm) (Supleco Inc., Mississauga, ON, Canada) with a Discovery® C18 Supelguard™ guard column (5 μm, 20 × 4 mm) (Supleco Inc., Mississauga, ON, Canada). LabSolutions Lite® software version 5.93 (Shimadzu, Kyoto, Japan) was used for the acquisition of data and analysis integration. The mobile phase comprised phosphate buffer and ACN (90:10, v/v). A phosphate buffer with a pH of 2.8 was prepared by combining 175 mL of 0.1 M phosphoric acid with 825 mL of 0.1 M monobasic sodium monophosphate. […] The final concentration of the phosphate buffer was 0.1 M. Separation was carried out using isocratic elution. The flow rate was set to 1 mL/min. The total run time for sample elution was set to 10 min. The detector was set to a wavelength of 192 nm, with the column and autosampler operated at ambient temperature.
(§2) The mixture was vortexed for 40 s and centrifuged at 12,000 rpm for 10 min using an Eppendorf 5424 Microcentrifuge (Eppendorf, Hamburg, Germany). The resultant supernatant was then transferred to a separate HPLC vial with glass inserts. Aliquots of 30 μL was then injected into the HPLC system for analysis. The sample preparation was performed at room temperature and directly injected into the HPLC system.
(§3) The conditions for stability assessment were designed to simulate the conditions encountered during sample storage, handling, and analysis. […] Additionally, we conducted an assessment of freeze–thaw stability involving three cycles, each comprising a 24 h freezing period followed by room temperature thawing, with the cycle being repeated. Acceptability criteria included a stability ratio to reference samples falling within the range of 85% to 115% and a percentage error within 15%.

[2] = Stability of vancomycin in non-extracted human plasma samples; assay type: in vitro ADME; details: for Mean back calculated Vancomycin Concentrations / % Error: non-extracted human plasma; for Mean back calculated Vancomycin Concentrations: HPLC-UV, mean of n = 5; for % Error: n = 5; for time of stability: plasma samples (non-extracted)
Protocol: as §1, §2, §3

[3] = Freeze and thaw stability of vancomycin in human plasma; assay type: in vitro ADME; details: nominal 10 mg/L
Protocol: as §1
The mixture was vortexed for 40 s and centrifuged at 12,000 rpm for 10 min using an Eppendorf 5424 Microcentrifuge (Eppendorf, Hamburg, Germany). The resultant supernatant was then transferred to a separate HPLC vial with glass inserts. […]

[4] = cited from earlier work
From the text: It is also the preferred agent for managing Gram-positive bacterial infections in patients allergic to beta-lactam antimicrobials.

[5] = -80 °C, 2 weeks, nominal 10 mg/L
[6] = -80 °C, 24 hours, nominal 10 mg/L
[7] = room temperature, 24 hours, nominal 10 mg/L
[8] = -20 °C, 2 weeks, nominal 10 mg/L
[9] = -80 °C, 24 hours, nominal 70 mg/L
[10] = fridge temperature, 2 weeks, nominal 10 mg/L
[11] = fridge temperature, 3 hours, nominal 10 mg/L
[12] = fridge temperature, 3 hours, nominal 70 mg/L
[13] = fridge temperature, 24 hours, nominal 10 mg/L

CN[C@H](CC(C)C)C(=O)N[C@H]1C(=O)N[C@@H](CC(N)=O)C(=O)N[C@H]2C(=O)N[C@H]3C(=O)N[C@H](C(=O)N[C@H](C(=O)O)c4cc(O)cc(O)c4-c4cc3ccc4O)[C@H](O)c3ccc(c(Cl)c3)Oc3cc2cc(c3O[C@@H]2O[C@H](CO)[C@@H](O)[C@H](O)[C@H]2O[C@H]2C[C@](C)(N)[C@H](O)[C@H](C)O2)Oc2ccc(cc2Cl)[C@H]1O [Vancomycin]
period with satisfactory precision and accuracy ([1]; extracted human plasma samples, -80 °C storage): 2 week | degradation on storage at room temperature ([1]; extracted human plasma samples, storage for 24 h, 1 week and 2 weeks): substantial degradation | period with satisfactory precision and accuracy ([1]; extracted human plasma samples, under refrigeration): 2 week | Mean back calculated Vancomycin Concentrations [1, 5]: 8.980 mg/L | Mean back calculated Vancomycin Concentrations [1, 6]: 9.888 mg/L | Mean back calculated Vancomycin Concentrations ([1]; fridge temperature (4 °C), 2 weeks, nominal 10 mg/L): 8.307 mg/L | Mean back calculated Vancomycin Concentrations ([1]; fridge temperature (4 °C), 3 hours, nominal 10 mg/L): 8.720 mg/L | Mean back calculated Vancomycin Concentrations ([1]; fridge temperature (4 °C), 24 hours, nominal 10 mg/L): 9.740 mg/L | Mean back calculated Vancomycin Concentrations ([1]; fridge temperature (4 °C), 24 hours, nominal 70 mg/L): 76.528 mg/L | Mean back calculated Vancomycin Concentrations ([1]; room temperature, 1 week, nominal 10 mg/L): 2.491 mg/L | Mean back calculated Vancomycin Concentrations ([1]; room temperature, 2 weeks, nominal 10 mg/L): 0.722 mg/L | Mean back calculated Vancomycin Concentrations ([1]; room temperature, 2 weeks, nominal 70 mg/L): 3.647 mg/L | Mean back calculated Vancomycin Concentrations ([1]; room temperature, 3 hours, nominal 10 mg/L): 9.283 mg/L | Mean back calculated Vancomycin Concentrations [1, 7]: 6.792 mg/L | Mean back calculated Vancomycin Concentrations [2, 8]: 8.179 mg/L | % Error [2, 8]: 18.210% | % Error ([2]; -20 °C, 2 weeks, nominal 70 mg/L): 12.943% | Mean back calculated Vancomycin Concentrations [2, 5]: 8.809 mg/L | % Error [2, 5]: 11.910% | Mean back calculated Vancomycin Concentrations ([2]; -80 °C, 2 weeks, nominal 70 mg/L): 69.056 mg/L | Mean back calculated Vancomycin Concentrations [2, 6]: 9.282 mg/L | Mean back calculated Vancomycin Concentrations [2, 9]: 67.964 mg/L | % Error [2, 9]: 2.909% | Mean back calculated Vancomycin Concentrations [2, 10]: 8.404 mg/L | % Error [2, 10]: 15.960% | % Error ([2]; fridge temperature, 2 weeks, nominal 70 mg/L): 1.271% | Mean back calculated Vancomycin Concentrations [2, 11]: 9.276 mg/L | % Error [2, 11]: 7.240% | Mean back calculated Vancomycin Concentrations [2, 12]: 75.272 mg/L | % Error [2, 12]: 7.531% | Mean back calculated Vancomycin Concentrations [2, 13]: 8.860 mg/L | % Error [2, 13]: 11.400% | % Error ([2]; fridge temperature, 24 hours, nominal 70 mg/L): 0.770% | Mean back calculated Vancomycin Concentrations ([2]; room temperature, 3 hours, nominal 70 mg/L): 70.355 mg/L | Mean back calculated Vancomycin Concentrations [2, 7]: 9.543 mg/L | time of stability ([2]; -80 °C): 2 weeks | time of stability ([2]; room temperature): 24 h | Mean back calculated Vancomycin Concentrations ([3]; three freeze-thaw cycles (24 h freezing, room temperature thawing), HPLC-UV, mean of n = 5): 9.289 mg/L | % Error ([3]; three freeze-thaw cycles, n = 5): 7.110% | oral bioavailability [4]: negligible
